US20110224276A1, “OPTICAL ISOMER OF PHENYLPROPIONIC ACID AND ITS MEDICINAL USE” (priority 2008, published 2011)

Assays:
in vivo [1] = conditions: mouse, in vivo, po
Description: (§1) Each tested group includes 5 dose-groups during the tests as follows:
(§2) Intragastric administration (ig)
(§3) (3) Observed periods: 14 days

ICR mice [2] = assay: in vivo; conditions: LD50 ig compared with S
Description: as §1, §2, §3

SD rats [3] = assay: long-term toxicity test in SD rats, thirteen-week consecutive intragastric administration and four-week convalescence; conditions: for nontoxic dosage: 13-week consecutive intragastric administration
Method: 2. […] The tested samples are formulated into suspensions by milling with 0.5% CMC—Na; intragastric administration (10 ml/kg) every day for consecutive 13 weeks; on each day, after administration, the general conditions of the animals are observed, and weight and amount of ingestion are determined once every week. In 24 hours after the last administration, half of rats in each tested group are fasted overnight, blood samples are withdrawn via femoral arteries, and the rats are dissected, and the indexes of blood cytology and biochemics, gloss anatomy and histopathological examination are preformed. The administration to remaining half rats is stopped, and the convalescence is observed; general conditions are observed and weight and amount of ingestion are determined once every week. After 4 weeks, the observation is complete, and the half of rats in each tested group are fasted overnight, blood samples are withdrawn via femoral arteries, and the rats are dissected, and the indexes of blood cytology and biochemics, gloss anatomy and histopathological examination are preformed.

[4] = tested on: hot plate pain threshold of mice; assay: hot plate pain threshold of mice; assay type: in vivo; conditions: for pain threshold(s) 0 h: 0 h (base threshold before administration); for pain threshold(s) 0.5 h: 0.5 h after administration; for pain threshold(s) 1 h: 1 h after administration
Method: On the basis of preliminary test, 90 healthy Kunming species of Mus musculus albus are selected, female, weight 18˜22 g, […], and each group of 10 mice, said tested groups comprising:
Each group of animals is pasted for 12 h, but drinking ad libitum. Mice are placed on a homoiothermal hot plate (55±0.5[…]), and the time of occurrence of licking foot is recorded as pain threshold. Appropriate mice (whose reaction time of pain is less than 60 seconds) are selected and randomly divided into groups, and pain thresholds are measured twice before administration and the average value is used as base pain threshold. At 0.5 h and 1 hour after intragastric administration of corresponding drugs, the pain threshold of each mouse is measured (if there are no reaction of pain in 60 seconds, then the threshold is considered as 60 second).
Using Microsoft EXCEL software, the average value of pain threshold of each tested group and the average value of control group are performed t-test analysis, and P<0.05 is considered as statistically significant difference.

in vivo [5] = conditions: mouse, in vivo, ip
Description: as §1
(§4) Intraperitoneal injection (ip)
(§5) (3) Observed periods: 14 days.

ICR mice [6] = assay: in vivo; conditions: LD50 ip compared with S
Description: as §1, §4, §5

Cox-1 = molecular target: T1, Cox-1 (Ovis aries, UniProt P05979); assay: inhibiting activity to COX-1 (TMPD colorimetric, 590 nm); assay type: biochemical; conditions: tested at 300, 100, 30, 10 μmol/L (positive control 100, 30, 10, 3)
T1 construct: purchased Cayman, USA
T1 sequence (P05979 25-600): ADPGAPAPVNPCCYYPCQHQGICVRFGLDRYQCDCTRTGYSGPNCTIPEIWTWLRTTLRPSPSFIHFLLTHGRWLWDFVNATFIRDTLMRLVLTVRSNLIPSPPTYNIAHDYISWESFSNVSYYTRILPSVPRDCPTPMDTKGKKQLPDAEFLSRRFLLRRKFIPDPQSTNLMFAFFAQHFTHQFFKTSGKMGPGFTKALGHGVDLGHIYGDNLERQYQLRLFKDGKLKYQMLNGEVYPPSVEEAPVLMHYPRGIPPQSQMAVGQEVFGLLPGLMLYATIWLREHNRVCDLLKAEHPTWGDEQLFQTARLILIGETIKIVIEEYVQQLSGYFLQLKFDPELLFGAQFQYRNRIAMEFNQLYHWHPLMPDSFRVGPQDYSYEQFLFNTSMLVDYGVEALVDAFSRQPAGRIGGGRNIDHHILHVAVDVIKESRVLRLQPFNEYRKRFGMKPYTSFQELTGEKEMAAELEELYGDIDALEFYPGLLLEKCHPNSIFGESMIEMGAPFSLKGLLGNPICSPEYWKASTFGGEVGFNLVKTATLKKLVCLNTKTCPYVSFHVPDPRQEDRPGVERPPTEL
Method: 2.5.1 The Inhibiting Activity to COX-1/COX-2
(1) In 220 ul of reaction system, mixed buffer (1×), heme, COX-1/COX-2, and the compound to be tested, are sequentially added, and are incubated for 5 minutes at 25° C.;
(2) Adding chromogenic substrate (TMPD) and arachidonic acid;
(3) Carefully shaking the plate for several seconds, then incubating for 15 minutes at 25° C.;
(4) Detecting absorption value at 590 nm.
Fitting data of concentration (μmol/L) and corresponding inhibition rate (%) via Microsoft EXCEL software to get a trendline, so as to obtain the half-effective inhibiting concentration (IC50) of each tested enzyme.

SD rats [7] = assay: toxicity test in SD rats, four-week consecutive intragastric administration; conditions: for nontoxic dosage: four-week consecutive intragastric administration; for animals dead during 4 weeks administration: 10 rats per group
Method: 2. […] The tested samples are formulated into suspensions by milling with 0.5% CMC—Na; intragastric administration every day (10 ml/kg) for consecutive 4 weeks; on each day, after administration, the general conditions of the animals are observed, and weight and amount of ingestion are determined once every week. In 24 hours after the last administration, the rats are fasted overnight, blood samples are withdrawn via femoral arteries, and the rats are dissected, and the indexes of blood cytology and biochemics, gloss anatomy and histopathological examination are preformed.

[8] = tested on: writhing in mice induced by acetic acid; assay: writhing in mice induced by acetic acid; assay type: in vivo; conditions: for ED50: Mus musculus, read-out: ED50 (mg/kg) of inhibition of writhing; for maximum inhibitory rate (%) on mouse writhing: ig 1 h before 0.6% acetic acid ip, maximum of three dose groups (30, 10, 3 mg/kg; R 90, 30, 10 mg/kg), n=10
Method: For each group, the required weights of drugs are weighted, and are milled with 0.5% CMC—Na to required concentration ready-for-use.
Each group of animals is fasted for 12 h, but drinking ad libitum. At 1 hour after intragastric administration of corresponding drugs, 0.6% acetic acid (0.2 ml/per) is intraperitoneally injected, and the number of writhing of mice in 15 min after injection are recored. The mice with waist muscle repeat shrinkage, bump back, rump torsion and posterior limb stretch are used as writhing positive animals. Inhibition rates of drugs on writhing are calculated based on the following formula:
Inhibition rate (%)=[(number of writhing of the control group−number of writhing of administrated group)/number of writhing of the control group]×100%
Inhibition rate of each dose-group on writhing (%) is obtained by means of above method. Fitting data of dosage (mg/kg) and corresponding inhibition rate (%) via Microsoft EXCEL software to get a trendline, so as to obtain the half-effective inhibiting dose (ED50) of each tested group on writhing.

SMILES: C[C@@H](C(=O)O)c1ccc2c(c1)CC(=O)c1ccccc1S2 [R, R-10,11-dihydro-alpha-methyl-10-oxo-dibenzo[b,f]tiazem-2-acetic acid]
- LD50 at 14 days (in vivo [1]; ICR): 3990 ± 153 mg/kg
- Com. Vs. S (multiple) (ICR mice [2]): 14.9 multiple
- nontoxic dosage (SD rats [3]; rats): 200 mg/kg
- pain threshold(s) 0 h ([4]; 40 mg/kg ig): 17.6 ± 13.8 s
- pain threshold(s) 0.5 h ([4]; 40 mg/kg ig): 12.0 ± 7.8 s
- pain threshold(s) 0 h ([4]; 80 mg/kg ig): 21.5 ± 15.5 s
- pain threshold(s) 1 h ([4]; 80 mg/kg ig): 17.5 ± 12.3 s
- pain threshold(s) 0 h ([4]; 160 mg/kg ig): 22.0 ± 4.9 s
- pain threshold(s) 0.5 h ([4]; 160 mg/kg ig): 24.1 ± 15.1 s
- pain threshold(s) 1 h ([4]; 160 mg/kg ig): 27.3 ± 11.9 s
- LD50 at 14 days (in vivo [5]; ICR): 744 ± 69.8 mg/kg
- Com. Vs. S (multiple) (ICR mice [6]): 3.7 multiple
- IC50 (Cox-1): > 300 µM
- nontoxic dosage (SD rats [7]; rats): 240 mg/kg
- ED50 [8]: 25.4 mg/kg
- maximum inhibitory rate (%) on mouse writhing [8]: 71.3%

SMILES: CC(C(=O)O)c1ccc2c(c1)CC(=O)c1ccccc1S2 (racemic) [RS, 10,11-dihydro-alpha-methyl-10-oxo-dibenzo[b,f]tiazem-2-acetic acid, reference compound]
- LD50 at 14 days (in vivo [1]): 327 ± 30.7 mg/kg
- Com. Vs. S (multiple) (ICR mice [2]): 1.2 multiple
- animals dead during thirteen-week administration (SD rats [3]; 50 mg/kg ig daily, 20 rats per group): 2 animals
- gastrointestinal tract toxicity (SD rats [3]; 13-week ig, rats, S 50, 25, RS 50, R 400, 200, 100, R:S=6:1 200, 100, 50 mg/kg): produces significant gastrointestinal tract toxicity
- nontoxic dosage (SD rats [3]; rats): 25 mg/kg
- pain threshold(s) 0 h ([4]; 40 mg/kg ig): 12.8 ± 3.7 s
- pain threshold(s) 0.5 h ([4]; 40 mg/kg ig): 9.9 ± 2.7 s
- pain threshold(s) 1 h ([4]; 40 mg/kg ig): 10.7 ± 5.7 s
- pain threshold(s) 0 h ([4]; 80 mg/kg ig): 12.7 ± 3.1 s
- pain threshold(s) 0.5 h ([4]; 80 mg/kg ig): 11.7 ± 5.2 s
- pain threshold(s) 1 h ([4]; 80 mg/kg ig): 9.6 ± 3.5 s
- LD50 at 14 days (in vivo [5]): 252 ± 18.9 mg/kg
- Com. Vs. S (multiple) (ICR mice [6]): 1.3 multiple
- IC50 (Cox-1): 153 µM
- animals dead during 4 weeks administration (SD rats [7]; 80 mg/kg ig daily): 2 animals
- gastrointestinal tract toxicity (SD rats [7]; four-week ig, rats, S 80, 40, RS 80, R 480, 240, 120, R:S=6:1 320, 160, 80 mg/kg): produces significant gastrointestinal tract toxicity
- nontoxic dosage (SD rats [7]; rats): 40 mg/kg
- ED50 [8]: 9.2 mg/kg
- maximum inhibitory rate (%) on mouse writhing [8]: 63.6%

SMILES: C[C@H](C(=O)O)c1ccc2c(c1)CC(=O)c1ccccc1S2 [S, S-10,11-dihydro-alpha-methyl-10-oxo-dibenzo[b,f]tiazem-2-acetic acid]
- LD50 at 14 days (in vivo [1]; ICR): 268 ± 22.2 mg/kg
- Com. Vs. S (multiple) (ICR mice [2]): 1.0 multiple
- nontoxic dosage (SD rats [3]; rats): 12.5 mg/kg
- pain threshold(s) 0 h ([4]; 40 mg/kg ig): 12.9 ± 5.0 s
- pain threshold(s) 0.5 h ([4]; 40 mg/kg ig): 10.8 ± 2.7 s
- pain threshold(s) 1 h ([4]; 40 mg/kg ig): 10.6 ± 4.6 s
- pain threshold(s) 0 h ([4]; 80 mg/kg ig): 13.6 ± 9.6 s
- pain threshold(s) 0.5 h ([4]; 80 mg/kg ig): 12.7 ± 6.9 s
- pain threshold(s) 1 h ([4]; 80 mg/kg ig): 7.9 ± 1.8 s
- LD50 at 14 days (in vivo [5]; ICR): 201 ± 14.3 mg/kg
- Com. Vs. S (multiple) (ICR mice [6]): 1.0 multiple
- IC50 (Cox-1): 186 µM
- animals dead during 4 weeks administration (SD rats [7]; 40 mg/kg ig daily): one
- animals dead during 4 weeks administration (SD rats [7]; 80 mg/kg ig daily): four
- nontoxic dosage (SD rats [7]; rats): 20 mg/kg
- ED50 [8]: 8.6 mg/kg
- maximum inhibitory rate (%) on mouse writhing [8]: 80.1%
